“Also recorded” adds a separate entry of the source. Where a SMILES comes first, the peptide text is derived from it. [ ]: non-standard residue; d: D form. Phe(4-I) = N[C@@H](Cc1ccc(I)cc1)C(=O)O
Tests used:
[1] = tested on: VEGF gene in 786-O cells; experiment: qPCR of HIF-2-driven VEGF in 786-O cells; format: cell-based; conditions: 50 μM
Protocol: The effect of our lead inhibitor on hypoxia-response signaling was measured by qPCR in cancer cell lines. Cells were treated with either 2 μM of an analogue of the HIF-2-specific inhibitor belzutifan, PT2399 (control), or 50 μM of cyclo-CRLII(4-iodo)F, incubated in hypoxia for […], and the levels of the hypoxia-response genes CAIX([41],[42]) and VEGF([43]) were measured by qPCR. We observed a 51% drop in CAIX transcription and a 43% drop in VEGF transcription in hypoxic MCF-7 (breast cancer) cells treated with 50 μM of cyclo-CRLII(4-iodo)F versus hypoxic MCF-7 cells treated with DMSO only (Figure 6e). […] We also observed a 49% drop in CAIX expression in hypoxic HeLa (cervical cancer) cells treated with cyclo-CRLII(4-iodo)F (Figure S9b). […] We observed a 35% drop in HIF-2-driven VEGF transcription in 786-O cells treated with 50 μM of cyclo-CRLII(4-iodo)F compared to a 50% decrease in 786-O cells treated with PT2399. […]
Realtime PCR (qPCR) Assay
Cells were plated on 6cm dishes at 80% confluency and incubated overnight under normoxic conditions. The cells were then treated with compound and incubated for 18 hours in hypoxic conditions. After treatment, the cells were washed with PBS and lysed under hypoxic conditions. The total RNA was extracted from the cells using a commercial RNA extraction kit (Fisher Scientific) following the manufacturer's instructions. […]

[2] = target: T1, HIF-1α/HIF-1β PPI (Homo sapiens, UniProt Q16665); experiment: Proximity-ligation assay (PLA) in DFX-treated HeLa cells; format: cell-based; conditions: 50 μM compound vs DMSO
T1 construct: endogenous in cells; host or cells: HeLa
T1 sequence (Q16665 whole entry): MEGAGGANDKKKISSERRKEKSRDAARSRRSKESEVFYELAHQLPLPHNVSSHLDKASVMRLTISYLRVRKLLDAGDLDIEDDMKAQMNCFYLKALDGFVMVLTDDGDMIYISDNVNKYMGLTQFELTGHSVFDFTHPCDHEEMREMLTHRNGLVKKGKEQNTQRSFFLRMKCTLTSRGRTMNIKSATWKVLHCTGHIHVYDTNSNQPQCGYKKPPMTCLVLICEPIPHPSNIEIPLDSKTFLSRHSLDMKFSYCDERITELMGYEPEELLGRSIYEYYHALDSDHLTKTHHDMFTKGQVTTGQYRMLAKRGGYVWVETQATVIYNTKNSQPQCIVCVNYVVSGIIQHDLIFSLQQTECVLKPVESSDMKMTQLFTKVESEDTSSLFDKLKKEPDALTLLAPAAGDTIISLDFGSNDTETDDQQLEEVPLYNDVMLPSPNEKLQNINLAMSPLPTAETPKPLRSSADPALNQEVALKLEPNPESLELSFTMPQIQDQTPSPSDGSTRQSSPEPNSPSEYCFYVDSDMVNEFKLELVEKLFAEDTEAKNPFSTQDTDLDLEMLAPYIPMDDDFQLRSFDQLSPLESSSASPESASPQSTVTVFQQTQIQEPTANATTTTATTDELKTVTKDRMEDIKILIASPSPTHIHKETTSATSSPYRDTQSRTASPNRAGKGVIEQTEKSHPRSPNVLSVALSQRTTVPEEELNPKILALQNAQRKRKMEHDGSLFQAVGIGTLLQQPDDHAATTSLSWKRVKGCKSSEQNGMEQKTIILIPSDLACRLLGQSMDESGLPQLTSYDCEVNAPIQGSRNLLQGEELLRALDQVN
Protocol: We used a previously reported[26] proximity-ligation assay (PLA) to assess whether cyclo-CRLII(4-iodo)F disrupts the HIF-1α/HIF-1β PPI in cells. HeLa cells were treated with the hypoxia mimic desferrioxamine (DFX) and treated with either DMSO (control) or 50 μM of cyclo-CRLII(4-iodo)F; in the control-treated samples, we observed the red puncta associated with the PLA signal from the targeted PPI (Figure 6c, upper panels).
(§1) All reagents were purchased from Fisher Scientific or Sigma Aldrich UK unless specified otherwise.
(§2) Restriction enzymes and microbiology reagents were purchased from New England Biolabs Inc., Fisher Scientific (UK) or Promega (UK) and were used as directed by the manufacturer. Primers and oligonucleotides were synthesised by Integrated DNA Technologies (UK). DNA sequencing was carried out by Eurofins MWG Operon (Germany).
(§3) Construction of the RTHS and SICLOPPS library, screening, purification of recombinant HIF proteins, and the PLA was conducted as previously described in Miranda et al., J. Am. Chem. Soc., 2013, 135(28); […]
The labelled protein was separated from unreacted dye by elution through a PD minitrap G-25 column (GE healthcare). […] Extent of labelling was measured by the absorbance obtained using the UV-vis mode on a NanoDrop ND-1000 Spectrophotometer (NanoDrop Technologies, USA). […]

[3] = target: T2, HIF-1α PAS-B domain (Homo sapiens, UniProt Q16665); experiment: MST binding to the PAS-B domain of HIF-1α
T2 construct: made in house
T2 sequence (Q16665 238-349 limits assumed): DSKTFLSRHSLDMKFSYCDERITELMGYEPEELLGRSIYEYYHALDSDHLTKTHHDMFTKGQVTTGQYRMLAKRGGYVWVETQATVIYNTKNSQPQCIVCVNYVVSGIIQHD
Protocol: as §1, §2, §3
Protein labelling with MST dye
Protein was buffer exchanged from storage buffer into labelling buffer (0.1 M NaHCO3, pH 8.5) using a PD spintrap G-25 column (GE healthcare). The protein concentration was then adjusted to 20 µM.
The commercially sourced MST dye (NanoTemper) was prepared as a 470 µM solution in DMSO, which was then further diluted to 60 µM using labelling buffer. To the protein solution was added an equal volume of dye solution, and the labelling reaction was left for 1 hour in the dark at room temperature.
The labelled protein was separated from unreacted dye by elution through a PD minitrap G-25 column (GE healthcare). Labelled protein was then aliquoted and stored at -80 °C. Extent of labelling was measured by the absorbance obtained using the UV-vis mode on a NanoDrop ND-1000 Spectrophotometer (NanoDrop Technologies, USA).
Labelled protein was thawed on ice and diluted to 50 nM in assay buffer containing 50 mM Tris pH 8.0, 150 mM NaCl, 5% (v/v) glycerol, 1 mM TCEP and 0.05% TWEEN-20. The protein solution was then centrifuged at 12000 rpm for 15 minutes at 4 °C and left on ice. Compounds were prepared and serially diluted in DMSO at 10x assay concentration, before diluting to 2x assay concentration in assay buffer.
The 2x compound solutions were then mixed 1:1 (v/v) with 50 nM labelled protein solution and left to incubate for 1 hour at room temperature. Solutions were then loaded into Monolith NT.115 Premium Capillaries (NanoTemper) and placed in the sample tray. MST experiments were carried out

CC[C@H](C)[C@@H]1NC(=O)[C@H](CC(C)C)NC(=O)[C@H](CCCNC(=N)N)NC(=O)[C@H](CS)NC(=O)[C@H](Cc2ccc(I)cc2)NC(=O)[C@H]([C@@H](C)CC)NC1=O [cyclo-CRLII(4-iodo)F] (cyclo(CRLII[Phe(4-I)]))
drop in HIF-2-driven VEGF transcription [1]: 35% | PLA signal (red puncta) of the HIF-1α/HIF-1β PPI [2]: red puncta are absent; also recorded: the red puncta were not observed | improvement in HIF-1α binding affinity compared to the parent cyclic peptide cyclo-CRLIIF ([3]; MST KD ratio): 4.6 fold | Kd ([3]; MST, mean ± SEM, n = 2 (n = 1 for most C1 analogues, n = 3 in Figure S2), read-out: KD for HIF-1α PAS-B): 800 ± 200 nM
